Laboratory results from patent US5473074A, “Adenosine diphosphoribose polymerase binding nitroso aromatic compounds useful as retroviral inactivating agents, anti-retroviral agents and anti-tumor agents-54” (priority 1992, dated 1995).
Entries after “also recorded” stand apart in the source; their conditions may differ. Like-named read-outs stand apart in the source and are kept apart here.

Columns and labels:
ADPRT = conditions: cited from earlier work
HIV-1 = assay: Anti-HIV action on stimulated human lymphoblasts, virus titer; assay type: cell-based; conditions: 30 min exposure, virus alone 5.25
Method: VIII. Anti-HIV action of NOBP, NOBA and NOQ on stimulated human lymphoblasts
Exposure to the two drugs was only for 30 minutes at the commencement of viral infection, and drugs were never re-added. The results given in Table III provide the ID50 of HIV titer 10 days after infection of cell cultures with HIV.

[1] = tested on: normal rhesus bone marrow stem cells; assay: CFU stem cell toxicity assay, FIG. 5A
calf thymus ADPRT = calf thymus ADPRT (Bos taurus, UniProt P18493); assay: ADPRT polymerase activity inhibition/inactivation (I50)
Chain of calf thymus ADPRT (P18493 whole entry): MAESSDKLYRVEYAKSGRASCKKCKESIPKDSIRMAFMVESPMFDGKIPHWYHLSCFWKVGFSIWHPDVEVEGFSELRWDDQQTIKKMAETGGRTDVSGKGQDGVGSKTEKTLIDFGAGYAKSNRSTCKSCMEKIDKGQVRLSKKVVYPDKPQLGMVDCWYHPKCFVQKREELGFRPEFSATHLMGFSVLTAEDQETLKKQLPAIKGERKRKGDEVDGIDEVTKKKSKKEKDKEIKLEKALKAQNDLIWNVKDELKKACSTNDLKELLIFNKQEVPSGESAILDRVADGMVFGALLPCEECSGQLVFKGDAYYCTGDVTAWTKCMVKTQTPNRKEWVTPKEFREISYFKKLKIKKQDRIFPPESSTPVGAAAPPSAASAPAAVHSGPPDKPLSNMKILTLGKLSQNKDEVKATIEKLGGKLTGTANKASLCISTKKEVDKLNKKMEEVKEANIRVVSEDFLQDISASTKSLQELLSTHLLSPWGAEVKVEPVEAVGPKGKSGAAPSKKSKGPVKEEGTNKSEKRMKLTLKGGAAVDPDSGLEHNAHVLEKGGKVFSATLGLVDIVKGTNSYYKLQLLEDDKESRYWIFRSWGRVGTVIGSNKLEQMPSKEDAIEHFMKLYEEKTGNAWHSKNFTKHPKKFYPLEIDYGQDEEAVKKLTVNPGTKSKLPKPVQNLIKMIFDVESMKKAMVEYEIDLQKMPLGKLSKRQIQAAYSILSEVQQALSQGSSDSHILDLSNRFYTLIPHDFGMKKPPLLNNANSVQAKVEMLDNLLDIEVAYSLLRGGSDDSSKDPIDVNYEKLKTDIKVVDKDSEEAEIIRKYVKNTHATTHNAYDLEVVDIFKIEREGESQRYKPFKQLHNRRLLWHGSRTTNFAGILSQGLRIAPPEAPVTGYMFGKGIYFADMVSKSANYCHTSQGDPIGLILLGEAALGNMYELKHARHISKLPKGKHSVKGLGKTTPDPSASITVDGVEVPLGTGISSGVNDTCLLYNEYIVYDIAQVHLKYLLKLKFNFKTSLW
Method: The compounds of the subject invention were tested for their ability to inactivate the polymerase activity of adenosinediphosphoribosyl transferase (ADPRT). Assays were performed according to the method of Buki and Kun, Biochem. 27:5990-5995 (1988), using calf thymus ADPRT.
Assay conditions: ADPRT, 0.4 μg; coDNA, 4 μg; inhibitor diluted
between 0.8 and 600 μM, in 50 μl of 50 mM TrisHCl, 50 mM KCl, 5 mM
2mercaptoethanol, 0.5 mM EDTA, 0.1 mM NAD ([32Plabelled), pH 7.5.
Polymerization at 25° C. for 4 minutes.

[2] = tested on: human leukemia cell lines (855-2, H9, HL-60, K562); assay: [3H]thymidine uptake, human leukemia cell lines (FIG. 2); assay type: cell-based
Method: FIGS. 2A-2F are composite of graphs displaying the inhibitory effects of the ADRPT ligands on (FIG. 2A) 855-2 cells (a cell line of human B-cell lineage acute lymphoblastic leukemia), (FIG. 2B) H9 cells (a cell line of human T-cell lineage acute lymphoblastic leukemia), (FIG. 2C) HL-60 cells (a cell line of human acute nonlymphoblastic leukemia) and (FIG. 2D) K562 cells (a cell line of human chronic myelogenous leukemia). These cells were cultured while under the influence of the growth factors in 10% fetal bovine serum (FCS), whereas in (FIG. 2E) and (FIG. 2F) the 855-2 cells were cultured in the presence of autocrine growth factor activity (AGF) or low molecular weight-B-cell growth factor (BCGF, a T-cell derived lymphokine), respectively.

H9 cells = assay: [3H]thymidine uptake, H9 cells; assay type: cell-based, human; conditions: 10% FCS
K562 cells = assay: [3H]thymidine uptake, K562 cells; assay type: cell-based, human; conditions: 10% fetal bovine serum
855-2 cells [3] = assay: [3H]thymidine uptake / growth, 855-2 cells; assay type: cell-based, human
855-2 cells [4] = assay: Colony formation (CFU) in semi-solid medium, 855-2; assay type: cell-based, human; conditions: single cells in semi-solid medium
HL-60 cells = assay: Colony formation (CFU) in semi-solid medium, HL-60; assay type: cell-based, human; conditions: single cells in semi-solid medium
[5] = tested on: cancer cells (855-2 and HL-60 leukemia, D32, D37 and CRL 7712 glioblastoma, 186 medulla tumor, L1210 murine leukemia, MDA-468 human breast tumor); assay: Functions of cancer cells in absence or presence of compounds (FIGS. 4-9); assay type: cell-based
Method: (§1) Experiments were performed in which the functions of various cancer cells (855-2 and HL-60 leukemia cells, D32, D37 and CRL 7712 glioblastoma cell lines, 186 medulla tumor cell line, L1210 murine leukemia cell line, MDA-468 human breast tumor cell line) and normal cells (neutrophil leukocytes and bone marrow or peripheral blood stream cells) were assessed in the absence or presence of the compounds.

[6] = tested on: normal human stem cells (PBSC); assay: Colony formation (CFU-GM) of normal human stem cells (PBSC), FIG. 5B; assay type: cell-based; conditions: 0, 2, 4, 8 and 10 μM
855-2 leukemia cells = assay: 855-2 growth inhibition, comparison with vincristine (FIG. 7); assay type: cell-based, human
Method: Vincristine, a highly toxic chemotherapeutic compound, is currently used in the treatment of leukemia and other malignancies. […] Vincristine was tested in doses of 0.1, 1, 10 and 100 μM.

855-2 cells [7] = assay: MTT assay, cytocidal activity; assay type: cell-based, human; conditions: 10 μM, 100,000 cells/ml
Method: MTT (3-[4,5-[…]]-2,5-diphenyltetrazolium bromide) at 1 mg/ml was then added for 16 hours. The absorbance of the pelleted cell was then measured at 550 nm after adding DMSO to solubilze the cells.

cells / HIV = assay: Anti-tumor / anti-HIV (biological) action, general statement
[8] = tested on: normal cells (neutrophil leukocytes and bone marrow or peripheral blood stem cells)
Method: as §1

[9] = tested on: human peripheral blood neutrophil leukocytes
[10] = tested on: human peripheral blood neutrophil leukocytes; assay: Superoxide generation by human neutrophils; conditions: 10 μM; 10^5 PMN + PMA (control 55.9 ± 7.7)
[11] = biological target: Zn(HIV1-F1), N-terminal CCHC zinc finger of the HIV-1 NC protein (Human immunodeficiency virus type 1 lw12.3 isolate, UniProt Q70622); conditions: Summers, et al.; cited from earlier work
[12] = tested on: malignant transformation / neoplasia; conditions: in vitro and in vivo; Tseng, et al.; cited from earlier work
[13] = not told

Compound: c1ccc2cnccc2c1 [isoquinoline]
- inhibition of ADPRT polymerase activity, in words (ADPRT): known to inhibit ADPRT polymerase activity

Compound: 3-aminonaphthylhydrazide
- inhibition of ADPRT polymerase activity, in words (ADPRT): known to inhibit ADPRT polymerase activity

Compound: Nc1ccc2oc(=O)ccc2c1I [IABP, 5-iodo-6-amino-1,2-benzopyrone]
- Virus Titer (log ID50), 10 days (HIV-1; 250 μM): 4.66 log ID50
- inhibition of ADPRT polymerase activity, in words (ADPRT): known ADPRT polymerase activity inhibitors
- CFU stem cell toxicity, in words ([1]; 250 μM): toxic at the tested given doses
- IC50 (calf thymus ADPRT): 41 µM

Compound: Nc1ccc2oc(=O)ccc2c1 [ABP, 6-amino-1,2-benzopyrone]
- Virus Titer (log ID50), 10 days (HIV-1; 500 μM): 4.50 log ID50
- ADPRT binding, in words (ADPRT; site that also binds to DNA, Hakam, et al.): binds specifically to ADRPT at the site that also binds to DNA
- CFU stem cell toxicity, in words ([1]; 1 mM): toxic at the tested given doses
- IC50 (calf thymus ADPRT): 370 µM

Compound: O=Nc1ccc2oc(=O)ccc2c1 [NOBP, 6-nitroso-1,2-benzopyrone]
- inhibition of 3H-thymidine uptake, in words ([2]; 10 μM, 855-2, H9, HL-60, K562 cells): powerfully inhibited 3H-thymidine uptake
- molar concentrations needed to inhibit 3H-thymidine uptake, in words ([2]; each of the cell lines tested): able to inhibit 3H-thymidine uptake in lower molar concentrations than the other compounds
- inhibition of thymidine uptake, H9 (H9 cells; 100 μM): almost complete inhibition
- inhibition at 10 µM (H9 cells; Homo sapiens, H9, 10 μM): ~30%
- inhibition of cell growth (thymidine uptake), K562 (K562 cells; 100 μM): almost complete inhibition
- relative potency, K562 (K562 cells): most potent inhibitors of cell growth; also recorded: almost as potent as NOQ
- relative inhibition of thymidine uptake, 855-2 (855-2 cells [3]; 1 μM, 10% fetal bovine serum): somewhat more inhibition than NOBA
- inhibition of thymidine uptake, 855-2 (855-2 cells [3]; 10 μM, 10% fetal bovine serum): almost complete inhibition
- growth arrest of 855-2 cells at increasing serum concentration (855-2 cells [3]; 10 μM, increasing FCS): Growth arrest occurs irrespective of the concentration of FCS
- relative potency, 855-2 (855-2 cells [3]; 10% fetal bovine serum): potent inhibitory effects regardless of the source of growth factor activity
- colony formation, 855-2, in words (855-2 cells [4]): inhibit the ability of human leukemic cells (855-2 and HL-60) to form colonies
- colony formation, HL-60, in words (HL-60 cells): inhibit the ability of human leukemic cells (855-2 and HL-60) to form colonies
- activity against tumor cells, in words [5]: highly effective (against tumor cells)
- cytotoxicity on CFU-GM of PBSC, in words [6]: Toxicity was not detected
- potency relative to vincristine (855-2 leukemia cells; vs equal concentration of vincristine): about 10 times more potent
- Virus Titer (log ID50), 10 days (HIV-1; 10 μM): 2.01 log ID50
- killing of 855-2 cells (MTT), in words (855-2 cells [7]): complete killing
- anti-tumor and anti-HIV activity, in words (cells / HIV): highly active as anti-tumor and anti-HIV molecules
- effectiveness after short exposure of cells (cells / HIV; exposure as short as 30 minutes): effective even after exposure of cells for a period as short as 30 minutes
- effect on normal stem cell colony formation (FIG. 5), in words [8]: minimal effect on normal cells
- effect on viability of normal cells, in words [8]: not to affect adversely the viability of normal cells
- toxicity to normal cells, in words [8]: not toxic to normal cells
- superoxide generation, in words [9]: Only minor reductions in superoxide generation
- superoxide generation by human neutrophils (mean + S.D., n = 11) [10]: 34.1 ± 14.1 nmol O2^- /hr/10^5 cells
- IC50 (calf thymus ADPRT): 40 µM

Compound: O=C(O)CN(CCN(CC(=O)O)CC(=O)O)CC(=O)O [EDTA]
- molar excess required to remove zinc from Zn(HIV-1-F1) [11]: 10 -fold molar excess

Compound: O=c1c(O)c(-c2ccc(O)c(O)c2)oc2cc(O)cc(O)c12 [quercetin]
- inhibition of ADPRT polymerase activity, in words (ADPRT): known to inhibit ADPRT polymerase activity

Compound: O=c1ccc2ccccc2o1 [coumarin (1,2-benzopyrone), 1,2-benzopyrone]
- inhibition of ADPRT polymerase activity, in words (ADPRT): known to inhibit ADPRT polymerase activity
- inhibition of ADPRT polymerase activity, in words (ADPRT; listed as 1,2-benzopyrone (coumarin)): inhibitory ligand of adenosinediphosphoribosyl transferase (ADPRT)
- anti-transforming and anti-neoplastic effect, in words [12]: anti-transforming and anti-neoplastic effect

Compound: NC(=O)c1ccccc1 [benzamide]
- inhibition of ADPRT polymerase activity, in words (ADPRT): known to inhibit ADPRT polymerase activity

Compound: O=Nc1ccc2oc(=O)ccc2c1I [5-I-6-NO-1,2-benzopyrone, 5-iodo-6-nitroso-1,2-benzopyrone]
- biological action relative to 6-NO-1,2-benzopyrone (cells / HIV; vs 6-NO-1,2-benzopyrone): 10 times weaker
- permeation, in words [13]: poor permeant molecule
- ADPRT inhibition, in words (calf thymus ADPRT): relatively poor inhibitor of ADRPT
- IC50 (calf thymus ADPRT): 400 µM

Compound: CC[C@]1(O)C[C@H]2CN(CCc3c([nH]c4ccccc34)[C@@](C(=O)OC)(c3cc4c(cc3OC)N(C=O)[C@H]3[C@@](O)(C(=O)OC)[C@H](OC(C)=O)[C@]5(CC)C=CCN6CC[C@]43[C@@H]65)C2)C1 [vincristine, reference compound]
- concentration required to produce the same level of inhibition as 10 μM NOBP (855-2 leukemia cells; in vitro): 100 µM

Compound: O=c1ccc2cc([N+](=O)[O-])ccc2o1 [NO2 BP, 6-nitro-1,2-benzopyrone]
- activity against tumor cells, in words [5]: weakly active
- activity against tumor cells, in words ([5]; listed as 6-nitro derivative): almost ineffective (against tumor cells)
- Virus Titer (log ID50), 10 days (HIV-1; 250 μM): 4.93 log ID50
